What was measured:
Type in all cases: cell-based, human
CD8+ T cells [1] = conditions: control donors aged 21-42, wk 0 directly ex vivo, peptide pulsed T2 cells 1:1; positive if SFC greater than 5 per 100000 CD8+ T cells, p<0.05
CD8+ T cells [2] = conditions: for control donors in whom the epitope elicited a response: 12 control donors, aAPC assay, ICS; for geriatric donors with CD8+ T cells responding to the epitope: nine geriatric donors aged 65 and above, IFNγ ICS after 3 weeks of aAPC stimulation
CD8+ T cells [3] = test system: CD8+ T cells

Sequence | number of donors who responded by IFNγ ELISpot (CD8+ T cells [1]) | control donors in whom the epitope elicited a response (CD8+ T cells [2]) | geriatric donors with CD8+ T cells responding to the epitope (CD8+ T cells [2]) | CD8+ T cells specific by IFNγ expression (ICS) (CD8+ T cells [2]; Donor C1, after 3 weekly aAPC stimulations, restimulated with peptide pulsed T2 cells 1:1) [%] | CD8+ T cells specific for the epitope by A2-Ig dimer staining (CD8+ T cells [3]) [%]
CVNGSCFTV (listed as Influenza virus) [NA231-239, subdominant influenza peptide, pool 1] | no donor responded | – | – | – | –
IMDKNIILKA (listed as Influenza virus) [NS1123-132, subdominant influenza peptide, pool 2] | One | majority of the donors | Donors E2, E3, E4, and E8 responded | – | –
NMLSTVLGV (listed as Influenza virus) [PB1413-421, subdominant influenza peptide, pool 1] | Four out of the six | majority of the donors | none responded | 37 | 75
SLCPIRGWAI (listed as Influenza virus) [NA75-84, subdominant influenza peptide, pool 2] | 2 | – | – | – | –
SLENFRAYV (listed as Influenza virus) [PA225-233, subdominant influenza peptide, pool 1] | One | – | – | – | –

Source: US20110300168A1, “COMPOSITIONS AND METHODS FOR INDUCING AN IMMUNE RESPONSE AGAINST INFLUENZA ANTIGENS” (THE JOHNS HOPKINS UNIVERSITY, priority 2010, published 2011)
